We go through two compounds from patent publication US20100331185A1, “Herbicidal Compositions of Lithium Glyphosate and Adjuvants” (COGNIS IP […], priority 2007, published 2010).

Like-named read-outs stand apart in the source and are kept apart here.

How the values of series [1] were obtained: 35.2 g of glyphosate tech (96%, 0.208 mol) was mixed with 20 g water in a flask. 8.4 g of LiOH monohydrate was added to this mixture with good mixing.
For series [2] the following is noted: acid form, in water at 25° C.; cited from earlier work.

In the case of `O=C(O)CNCP(=O)([O-])O.[Li+]` [Li glyphosate, lithium glyphosate], in series [1], the “product pH (1%)” value is on record as 4.98. In addition, the “Li glyphosate Solubility” value is recorded as less than 100 g/L in series [1] (solvent: Agnique KE 3658); less than 50 g/L in series [1] (solvent: Agnique ME 610); less than 50 g/L in series [1] (solvent: Exxsol D-110); less than 150 g/L in series [1] (solvent: N-Methyl pyrrolidone); less than 200 g/L in series [1] (solvent: Water).

As for `O=C(O)CNCP(=O)(O)O` [glyphosate], the solubility in water in series [2] is 0.16 % by weight.
